From patent publication US5120729A, “Beta-lactams as antihypercholesterolemics” (Merck & Co., Inc., priority 1990, dated 1992)
One block for each molecule: values may come before it.

Biological target: T1, HMG-CoA synthase (Rattus norvegicus, UniProt P17425)
T1 construct: The livers from male Charles River CD rats (225-350 g) were homogenized; from tissue; host or cells: rat liver (male Charles River CD rats), 100,000×g supernatant, ammonium sulfate precipitate, DEAE-52 fraction
T1 sequence (P17425 1-520): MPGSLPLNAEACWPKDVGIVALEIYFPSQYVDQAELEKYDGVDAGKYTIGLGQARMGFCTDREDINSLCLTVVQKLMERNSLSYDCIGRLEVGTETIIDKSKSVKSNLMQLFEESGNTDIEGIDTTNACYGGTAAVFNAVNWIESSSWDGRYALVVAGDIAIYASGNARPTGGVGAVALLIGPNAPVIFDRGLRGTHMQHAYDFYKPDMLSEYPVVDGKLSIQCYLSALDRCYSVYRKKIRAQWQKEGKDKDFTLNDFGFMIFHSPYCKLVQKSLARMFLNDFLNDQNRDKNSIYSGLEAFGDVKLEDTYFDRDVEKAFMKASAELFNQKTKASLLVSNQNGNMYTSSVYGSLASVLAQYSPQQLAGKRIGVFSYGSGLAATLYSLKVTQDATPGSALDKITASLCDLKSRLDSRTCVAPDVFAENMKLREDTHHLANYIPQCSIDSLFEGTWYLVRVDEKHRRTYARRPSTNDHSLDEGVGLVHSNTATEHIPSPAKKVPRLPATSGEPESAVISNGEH
Test: HMG-CoA synthase inhibition assay
Assay type: biochemical
Experimental: The intrinsic HMG-CoA synthase inhibition activity of the compounds of this invention is measured by the standard in vitro protocol described below:
The livers from male Charles River CD rats (225-350 g) were homogenized in 0.25M sucrose which was adjusted with phenylmethylsulfonylfluoride (PMSF) and N-p-tosyl-l-lysine chloromethyl ketone (TLCK) so that the final concentration of each was […], respectively. The homogenate was centrifuged at 15,000×g for 20 minutes, the supernatant filtered through a fine nylon screen to remove most of the fat layer and recentrifuged at 100,000×g for 1 hour. This supernatant was removed and 1M potassium phosphate, dithiothreitol (DTT) and ethylene glycolbis(β-aminoethyl ether)-N,N,N',N'-tetraacetic acid (EGTA) added to give a final concentration of 0.1M (pH 7.2), 0.5 mM and 0.1 mM, respectively. Solid ammonium sulfate was added to 50% saturation to the protein solution, it was centrifuged at 15,000×g and the supernatant discarded. This precipitated protein could be stored at -70° C. for at least one month with very little loss of activity. The ammonium sulfate precipitate was dissolved in an minimal amount of 0.06M potassium phosphate buffer (pH 7.2) containing 0.5 mM dithiothreitol and 0.1 mM EGTA (referred to as 0.06M phosphate buffer) and dialyzed overnight against 2 liters of the same buffer to remove the ammonium sulfate and to inactivate HMG-CoA lyase [Clinkenbeard, et al., J. Biol. Chem. 250, 3108-3116(1975)].
The dialyzed extract was added to a column of DEAE-52 (Whatman) which had been equilibrated with 0.06M phosphate buffer (10 mg of protein to 1 ml bed volume of the resin). The DEAE-cellulose was eluted with 0.06M phosphate buffer until the optical density at 280 nm was essentially zero. This fraction contained the β-ketoacetyl-CoA thiolase activity. The HMG-CoA synthase was eluted from the column with 0.1M phosphate buffer (pH 7.2) containing 0.5 mM DTT and 0.1 mM EGTA, and was virtually free of all thiolase activity. The protein was precipitated by the addition of ammonium sulfate to give 50% saturation. This solution was stirred for 10 minutes at 4° C. and the precipitate collected by centrifugation at 15,000 rpm for 10 minutes. The supernatant was discarded and the precipitate dissolved in a minimum of 0.06M phosphate buffer, pH 7.2 (about 10 ml) and the enzyme stored at -80° C.
HMG-CoA Synthase Inhibition Assay
Enzyme protein (ca. 24 mg) was added to a solution containing […] (pH 8.0), 11.7 μM MgCl2, 1.17 μM ethylenediaminetetraacetic acid (EDTA), 0.58 μM dithiothreitol, and the indicated concentrations of the test compound (added as a 2 mg/ml solution in dimethylsulfoxide). The incubation took place in a volume of 0.085 ml at 30° in a shaking water bath. After 5 minutes, […] of a solution containing acetoacetyl-CoA and 0.1 μCi of 1-[^14 C]-acetyl-CoA was added to give a final concentrations of 0.1 and 0.4 μM, respectively. The incubation was continued for 10 more minutes and the reaction stopped by the addition of […] of the assay mixture to 0.2 ml of 6N HCl in a glass scintillation vial. The vial was heated for 1 hour at 120° after which time 0.2 ml more of 6N HCl was again added to each vial and the heating continued for another hour. Following this, 1.0 ml of 0.9% saline was added to each vial and finally 10 ml of scintillation liquid. Radioactivity was determined in a Packard Tri-Carb liquid scintillation counter.
Percent inhibition is calculated by the formula: [formula]
IC50 values were determined by plotting the log of the concentration of the test compound verses the percentage inhibition and fitting a straight line to the resulting data by using the least squares method.

[1] = Table IV, n is 2, R3 is CH3CH2 or CH3OCH2
[2] = Table II, n is 1, R3 is C1-5 alkyl

IC50 (Table I, n is 1, R3 is H): 70 nM
SMILES: Cc1ccc(S(=O)(=O)N2C(=O)C[C@H]2CSc2ccccc2)cc1 [Table I i), (4S)-4-Thiophenoxymethyl-N-toluenesulfonyl-2-azetidinone]

IC50 [1]: 1400 nM
SMILES: COC[C@H]1C(=O)N(S(=O)(=O)c2ccc(C)cc2)[C@@H]1CCOc1ccc(C(=O)OC)cc1 (relative stereo) [Table IV ii)]

IC50 (Table I, n is 1, R3 is H): 46 nM
SMILES: COC(=O)c1ccc(OC[C@@H]2CC(=O)N2S(=O)(=O)c2ccc(C)cc2)cc1 [Table I iv), (4S)-4-p-Methoxycarbonylphenoxymethyl-N-toluenesulfonyl-2-azetidinone]

IC50 [2]: 67 nM
SMILES: CC[C@@H]1C(=O)N(S(=O)(=O)c2ccc(C)cc2)[C@@H]1COC (relative stereo) [Table II ii), (±)-cis-3-Ethyl-4-methoxymethyl-N-toluenesulfonyl-2-azetidinone]

IC50 (Table VI, n is 4): 3600 nM
SMILES: COCC1C(=O)N(S(=O)(=O)c2ccc(C)cc2)C1CCCCC(C)CC(C)=CC(C)=CC(=O)OC [Table VI i), (3R,4R,5'R)-(E,E)-3-Methoxymethyl-4-(10'-methoxycarbonyl-5',7',9'-trimethyl-7',9'-decadienyl)-N-toluensulfonyl-2-azetidinone]

IC50 [2]: 60 nM
SMILES: CC[C@@H]1C(=O)N(S(=O)(=O)c2ccc(C)cc2)[C@@H]1CF (relative stereo) [Table II iii), (±)-cis-3-Ethyl-4-fluoromethyl-N-toluenesulfonyl-2-azetidinone]

IC50 (Table I, n is 1, R3 is H): 120 nM
SMILES: Cc1ccc(S(=O)(=O)N2C(=O)C[C@H]2C[S+]([O-])c2ccccc2)cc1 (stereo partly drawn) [Table I ii)]

IC50 [2]: 120 nM
SMILES: CC[C@@H]1C(=O)N(S(=O)(=O)c2ccc(C)cc2)[C@@H]1CSc1ccccc1 (relative stereo) [Table II i)]

IC50 (Table I, n is 1, R3 is H): 820 nM
SMILES: Cc1ccc(S(=O)(=O)N2C(=O)C[C@H]2CI)cc1 [Table I v)]

IC50 (Table III, n is 2, R3 is H): 66 nM
SMILES: COC(=O)c1ccc(OCCC2CC(=O)N2S(=O)(=O)c2ccc(C)cc2)cc1 (racemic) [Table III i), (±)-4-(2-p-Methoxycarbonylphenoxy)ethyl-N-toluenesulfonyl-2-azetidinone]

IC50 (Table V, n is 3, R3 is H): 190 nM
SMILES: COC(=O)c1ccc(OCCCC2CC(=O)N2S(=O)(=O)c2ccc(C)cc2)cc1 (stereo not drawn) [Table V i)]

IC50 (Table V, n is 3, R3 is H): 140 nM
SMILES: Cc1ccc(S(=O)(=O)N2C(=O)CC2CCCOc2ccccc2)cc1 (stereo not drawn) [Table V ii)]

IC50 (Table V, n is 3, R3 is H): 130 nM
SMILES: Cc1ccc(S(=O)(=O)N2C(=O)CC2CCCBr)cc1 (stereo not drawn) [Table V iii)]

IC50 (Table I, n is 1, R3 is H): 120 nM
SMILES: Cc1ccc(S(=O)(=O)N2C(=O)C[C@H]2CS(=O)(=O)c2ccccc2)cc1 [Table I iii), (4S)-4-Phenylsulfonymethyl-N-toluenesulfonyl-2-azetidinone]

IC50 (Table III, n is 2, R3 is H): 90 nM
SMILES: Cc1ccc(S(=O)(=O)N2C(=O)CC2CCOCc2ccccc2)cc1 (racemic) [Table III ii), (±)-4-(2-Benzyloxy)ethyl-N-toluenesulfonyl-2-azetidinone]

IC50 [1]: 65 nM
SMILES: CC[C@@H]1C(=O)N(S(=O)(=O)c2ccc(C)cc2)[C@@H]1CCOc1ccc(C(=O)OC)cc1 (relative stereo) [Table IV i), (±)-cis-3-Ethyl-4-(2-p-methoxycarbonylphenoxy)ethyl-N-toluenesulfonyl-2-azetidinone]

IC50 [1]: 640 nM
SMILES: CC[C@@H]1C(=O)N(S(=O)(=O)c2ccc(C)cc2)[C@@H]1CCS(=O)(=O)c1ccccc1 (relative stereo) [Table IV iii), (±)-3-Ethyl-4-(2-phenylsulfonyl)ethyl-N-toluenesulfonyl-2-azetidinone]

SMILES: Cc1ccc(S(=O)(=O)N2C(=O)CC2CCOC(c2ccccc2)c2ccccc2)cc1 (racemic) [Table III iii), (±)-4-(2-Diphenylmethoxy)ethyl-N-toluenesulfonyl-2-azetidinone]
IC50 (Table III, n is 2, R3 is H): 61 nM
